Results from ChEMBL document CHEMBL1138883, “Synthesis and biological evaluation of new asymmetrical bisintercalators as potential antitumor drugs” (2006).
The source made the active and inactive calls. No cut-off for these calls is given here.

Tests used:
PC-3 [1] = assay: Cytotoxicity against PC3 cells by SRB assay after 48 hrs; format: functional; details: Homo sapiens, PC-3, 48 h
[2] = Ratio of K(app) for [A-T] to [G-C]
PC-3 [3] = assay: Induction of apoptosis in PC3 measured as percentage of early apoptotic cells by biparametric PI/Annexin V assay at 2.6 uM after 8 hrs; format: functional, Homo sapiens
PC-3 [4] = assay: Induction of apoptosis in PC3 measured as percentage of necrotic cells by biparametric PI/Annexin V assay at 2.6 uM after 8 hrs; format: functional, Homo sapiens
PC-3 [5] = assay: Induction of apoptosis in PC3 measured as percentage of late apoptotic cells by biparametric PI/Annexin V assay at 2.6 uM after 4 hrs; format: functional, Homo sapiens
PC-3 [6] = assay: Induction of apoptosis in PC3 measured as percentage of late apoptotic cells by biparametric PI/Annexin V assay at 2.6 uM after 8 hrs; format: functional, Homo sapiens
PC-3 [7] = assay: Reduction in PC3 cell viability after 48 hrs by FDA flow cytometer assay; format: functional, cell-based; details: Homo sapiens
PC-3 [8] = assay: Induction of apoptosis in PC3 measured as percentage of late apoptotic cells by biparametric PI/Annexin V assay at 2.6 uM after 48 hrs; format: functional, Homo sapiens
PC-3 [9] = assay: Induction of apoptosis in PC3 measured as percentage of late apoptotic cells by biparametric PI/Annexin V assay at 2.6 uM after 24 hrs; format: functional, Homo sapiens
PC-3 [10] = assay: Induction of apoptosis in PC3 cells measured as percentage of living cells by biparametric PI/Annexin V assay at 2.6 uM after 8 hrs; format: functional, Homo sapiens
PC-3 [11] = assay: Induction of apoptosis in PC3 measured as percentage of necrotic cells by biparametric PI/Annexin V assay at 2.6 uM after 24 hrs; format: functional, Homo sapiens
PC-3 [12] = assay: Induction of apoptosis in PC3 measured as percentage of early apoptotic cells by biparametric PI/Annexin V assay at 2.6 uM after 24 hrs; format: functional, Homo sapiens
PC-3 [13] = assay: Induction of early apoptosis in PC3 cells by DNA fragmentation assay; format: functional, cell-based; details: Homo sapiens
PC-3 [14] = assay: Induction of apoptosis in PC3 cells measured as percentage of living cells by biparametric PI/Annexin V assay at 2.6 uM after 24 hrs; format: functional, Homo sapiens
PC-3 [15] = assay: Induction of apoptosis in PC3 cells measured as percentage of living cells by biparametric PI/Annexin V assay at 2.6 uM after 4 hrs; format: functional, Homo sapiens
PC-3 [16] = assay: Induction of apoptosis in PC3 measured as percentage of early apoptotic cells by biparametric PI/Annexin V assay at 2.6 uM after 48 hrs; format: functional, Homo sapiens
PC-3 [17] = assay: Induction of apoptosis in PC3 measured as percentage of necrotic cells by biparametric PI/Annexin V assay at 2.6 uM after 48 hrs; format: functional, Homo sapiens
PC-3 [18] = assay: Induction of apoptosis in PC3 measured as percentage of necrotic cells by biparametric PI/Annexin V assay at 2.6 uM after 4 hrs; format: functional, Homo sapiens
PC-3 [19] = assay: Induction of apoptosis in PC3 cells measured as percentage of living cells by biparametric PI/Annexin V assay at 2.6 uM after 48 hrs; format: functional, Homo sapiens
PC-3 [20] = assay: Induction of apoptosis in PC3 measured as percentage of early apoptotic cells by biparametric PI/Annexin V assay at 2.6 uM after 4 hrs; format: functional, Homo sapiens
PC-3 [21] = assay: Induction of apoptosis in PC3 cells measured as percentage of living cells by biparametric PI/Annexin V assay at 1.6 uM after 8 hrs; format: functional, Homo sapiens
PC-3 [22] = assay: Induction of apoptosis in PC3 measured as percentage of early apoptotic cells by biparametric PI/Annexin V assay at 1.6 uM after 8 hrs; format: functional, Homo sapiens
PC-3 [23] = assay: Induction of apoptosis in PC3 measured as percentage of late apoptotic cells by biparametric PI/Annexin V assay at 1.6 uM after 24 hrs; format: functional, Homo sapiens
PC-3 [24] = assay: Induction of apoptosis in PC3 measured as percentage of early apoptotic cells by biparametric PI/Annexin V assay at 1.6 uM after 4 hrs; format: functional, Homo sapiens
PC-3 [25] = assay: Induction of apoptosis in PC3 measured as percentage of late apoptotic cells by biparametric PI/Annexin V assay at 1.6 uM after 8 hrs; format: functional, Homo sapiens
PC-3 [26] = assay: Induction of apoptosis in PC3 measured as percentage of late apoptotic cells by biparametric PI/Annexin V assay at 1.6 uM after 48 hrs; format: functional, Homo sapiens
PC-3 [27] = assay: Induction of apoptosis in PC3 measured as percentage of late apoptotic cells by biparametric PI/Annexin V assay at 1.6 uM after 4 hrs; format: functional, Homo sapiens
PC-3 [28] = assay: Induction of apoptosis in PC3 cells measured as percentage of living cells by biparametric PI/Annexin V assay at 1.6 uM after 48 hrs; format: functional, Homo sapiens
PC-3 [29] = assay: Induction of apoptosis in PC3 measured as percentage of early apoptotic cells by biparametric PI/Annexin V assay at 1.6 uM after 24 hrs; format: functional, Homo sapiens
PC-3 [30] = assay: Induction of apoptosis in PC3 measured as percentage of necrotic cells by biparametric PI/Annexin V assay at 1.6 uM after 24 hrs; format: functional, Homo sapiens
PC-3 [31] = assay: Induction of apoptosis in PC3 measured as percentage of necrotic cells by biparametric PI/Annexin V assay at 1.6 uM after 48 hrs; format: functional, Homo sapiens
PC-3 [32] = assay: Induction of apoptosis in PC3 measured as percentage of necrotic cells by biparametric PI/Annexin V assay at 1.6 uM after 8 hrs; format: functional, Homo sapiens
PC-3 [33] = assay: Induction of apoptosis in PC3 cells measured as percentage of living cells by biparametric PI/Annexin V assay at 1.6 uM after 4 hrs; format: functional, Homo sapiens
PC-3 [34] = assay: Induction of necrosis in PC3 cells by DNA fragmentation assay; format: functional, cell-based; details: Homo sapiens
PC-3 [35] = assay: Induction of apoptosis in PC3 measured as percentage of necrotic cells by biparametric PI/Annexin V assay at 1.6 uM after 4 hrs; format: functional, Homo sapiens
PC-3 [36] = assay: Induction of apoptosis in PC3 measured as percentage of early apoptotic cells by biparametric PI/Annexin V assay at 1.6 uM after 48 hrs; format: functional, Homo sapiens
PC-3 [37] = assay: Induction of apoptosis in PC3 cells measured as percentage of living cells by biparametric PI/Annexin V assay at 1.6 uM after 24 hrs; format: functional, Homo sapiens

| Compound | GI50 (PC-3 [1]) [nM] | LC50 (concentration for 50% net cell kill) (PC-3 [1]) [nM] | TGI (PC-3 [1]) [nM] | Selectivity ratio [2] | further results |
| --- | --- | --- | --- | --- | --- |
| CN(C)CCNC(=O)c1ccc(NCCNCCNCCN2C(=O)c3cccc4cccc(c34)C2=O)c2c(O)c3cc([N+](=O)[O-])ccc3nc12 | 62 | 2500 | 390 |  |  |
| CN(C)CCNC(=O)c1ccc(NCCCN(C)CCCN2C(=O)c3cccc4cc([N+](=O)[O-])cc(c34)C2=O)c2c(O)c3ccccc3nc12 | 600 | 4400 | 1000 | 7.1 |  |
| CN(C)CCNC(=O)c1ccc(NCCCN(C)CCCN2C(=O)c3cccc4cc([N+](=O)[O-])cc(c34)C2=O)c2c(O)c3cc([N+](=O)[O-])ccc3nc12 | 8 | 4100 | 1300 | 2.1 |  |
| CN(C)CCCNC(=O)c1ccc(NCCCN(C)CCCN2C(=O)c3cccc4cc([N+](=O)[O-])cc(c34)C2=O)c2c(O)c3ccccc3nc12 | 50 | 3600 | 90 | 6.1 |  |
| CN(C)CCn1c(=O)c2ccc(NCCCN(C)CCCN3C(=O)c4cccc5cc([N+](=O)[O-])cc(c45)C3=O)c3c(=O)c4ccccc4n(c1=O)c23.Cl |  | 2600 |  | 4.3 | Activity (PC-3 [3]): 16.3%; Activity (PC-3 [4]): 26.9%; Activity (PC-3 [5]): 3.5%; Activity (PC-3 [6]): 7.8%; Activity (PC-3 [7]): Time-dependent effect; Activity (PC-3 [8]): 7.5%; Activity (PC-3 [9]): 6.3%; Activity (PC-3 [10]): 49%; Activity (PC-3 [11]): 28.6%; Activity (PC-3 [12]): 33.6%; Activity (PC-3 [13]): Active; Activity (PC-3 [14]): 31.5%; Activity (PC-3 [15]): 67.7%; Activity (PC-3 [16]): 4%; Activity (PC-3 [17]): 87.3%; Activity (PC-3 [18]): 16.3%; Activity (PC-3 [19]): 1.2%; Activity (PC-3 [20]): 12.5% |
| CN(C)CCNC(=O)c1ccc(NCCCN(C)CCCNc2ccc3c(=O)n(CCN(C)C)c(=O)n4c5ccccc5c(=O)c2c34)c2c(O)c3cc([N+](=O)[O-])ccc3nc12.Cl | 7 | 1600 | 160 | 1.9 | Activity (PC-3 [21]): 53%; Activity (PC-3 [22]): 3.6%; Activity (PC-3 [23]): 15.6%; Activity (PC-3 [24]): 1.9%; Activity (PC-3 [25]): 5.5%; Activity (PC-3 [7]): Time-dependent effect; Activity (PC-3 [26]): 35.2%; Activity (PC-3 [27]): 3%; Activity (PC-3 [28]): 5%; Activity (PC-3 [29]): 2.9%; Activity (PC-3 [30]): 44%; Activity (PC-3 [31]): 55.7%; Activity (PC-3 [32]): 37.9%; Activity (PC-3 [33]): 66.5%; Activity (PC-3 [34]): Active; Activity (PC-3 [35]): 28.6%; Activity (PC-3 [36]): 4.1%; Activity (PC-3 [37]): 37.5% |
| CN(C)CCCn1c(=O)c2ccc(NCCCN(C)CCCN3C(=O)c4cccc5cc([N+](=O)[O-])cc(c45)C3=O)c3c(=O)c4ccccc4n(c1=O)c23 | 1700 | 6600 | 3200 | 20 |  |
| CN(C)CCn1c(=O)c2ccc(NCCCN(C)CCCN3C(=O)c4cccc5cccc(c45)C3=O)c3c(=O)c4ccccc4n(c1=O)c23 |  | 2600 |  | 2.4 |  |
| CN(C)CCN1C(=O)c2cccc3cc([N+](=O)[O-])cc(c23)C1=O [MITONAFIDE] | 150 |  | 3800 |  |  |
| COc1ccc2c(c1)c(=O)c1c(NCCCN(C)CCCN3C(=O)c4cccc5cccc(c45)C3=O)ccc3c(=O)n(CCN(C)C)c(=O)n2c31 | 51 | 4000 | 850 | 4.5 |  |
| CN(C)CCCNC(=O)c1ccc(NCCCN(C)CCCN2C(=O)c3cccc4cccc(c34)C2=O)c2c(O)c3ccccc3nc12 | 600 | 4100 | 990 | 6.9 |  |
| COc1cc2c(=O)c3c(NCCCN(C)CCCN4C(=O)c5cccc6cc([N+](=O)[O-])cc(c56)C4=O)ccc4c(=O)n(CCN(C)C)c(=O)n(c2cc1OC)c43 | 17 | 4000 | 340 | 1.6 |  |
| CN(C)CCCNC(=O)c1ccc(NCCCN(C)CCCNc2ccc3c(=O)n(CCCN(C)C)c(=O)n4c5ccccc5c(=O)c2c34)c2c(O)c3ccccc3nc12 | 250 | 2500 | 600 | 14 |  |
| COc1ccc2c(c1)c(=O)c1c(NCCCN(C)CCCN3C(=O)c4cccc5cc([N+](=O)[O-])cc(c45)C3=O)ccc3c(=O)n(CCN(C)C)c(=O)n2c31 | 83 | 9300 | 500 | 4.8 |  |
| COc1cc2nc3c(C(=O)NCCN(C)C)ccc(NCCCN(C)CCCN4C(=O)c5cccc6cccc(c56)C4=O)c3c(O)c2cc1OC | 150 | > 50000 | 3800 | 1.3 |  |
| CN(C)CCCn1c(=O)c2ccc(NCCCN(C)CCCN3C(=O)c4cccc5cccc(c45)C3=O)c3c(=O)c4ccccc4n(c1=O)c23 | 420 | 3800 | 830 | 3.4 |  |
| CN(C)CCNC(=O)c1ccc(NCCCN(C)CCCNc2ccc3c(=O)n(CCN(C)C)c(=O)n4c5ccccc5c(=O)c2c34)c2c(O)c3ccccc3nc12 | 100 | 8300 | 1000 | 1.3 |  |
| CN(C)CCNC(=O)c1ccc(NCCCN(C)CCCN2C(=O)c3cccc4cccc(c34)C2=O)c2c(O)c3ccccc3nc12 | 520 | 5400 | 2000 | 4.1 |  |
| CN(C)CCNC(=O)c1ccc(NCCCN(C)CCCN2C(=O)c3cccc4cccc(c34)C2=O)c2c(O)c3cc([N+](=O)[O-])ccc3nc12 | 89 | 3000 | 630 | 1.4 |  |
